This passage reports IC50 results from patent US20080015237A1 (ASTRAZENECA AB, priority 2006, published 2008).

human Kv1.5 channel, sequence (P22460 whole entry): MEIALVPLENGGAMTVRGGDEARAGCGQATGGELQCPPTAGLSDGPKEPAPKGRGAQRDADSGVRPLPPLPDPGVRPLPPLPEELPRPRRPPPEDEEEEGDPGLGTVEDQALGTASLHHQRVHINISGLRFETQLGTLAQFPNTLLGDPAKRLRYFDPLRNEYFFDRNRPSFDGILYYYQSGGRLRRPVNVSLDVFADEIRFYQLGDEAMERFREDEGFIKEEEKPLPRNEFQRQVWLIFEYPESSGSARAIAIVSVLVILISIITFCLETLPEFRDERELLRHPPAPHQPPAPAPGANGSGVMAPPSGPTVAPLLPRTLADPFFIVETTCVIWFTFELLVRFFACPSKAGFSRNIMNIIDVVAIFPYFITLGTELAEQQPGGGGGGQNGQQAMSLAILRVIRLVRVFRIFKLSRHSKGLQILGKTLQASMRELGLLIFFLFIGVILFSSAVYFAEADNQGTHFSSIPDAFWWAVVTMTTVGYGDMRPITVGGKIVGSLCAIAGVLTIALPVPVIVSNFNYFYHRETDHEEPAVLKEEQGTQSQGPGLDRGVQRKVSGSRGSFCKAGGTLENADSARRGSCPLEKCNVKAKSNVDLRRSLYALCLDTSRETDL

The assay deals with human Kv1.5 channel (Homo sapiens, UniProt P22460). Briefly: Test A: Rb+ efflux assay. Format: cell-based. The settings on record: CHO cells stably transfected with cDNA for human Kv1.5. How it is done:
This assay identifies compounds that block the human Kv1.5 channel potassium channel heterologously expressed in Chinese Hamster Ovary (CHO) cells by means of Rb+ ion efflux using Flame Atomic Absorption Spectroscopy. For experimental studies, CHO cells stably transfected with cDNA for human Kv1.5 were grown as confluent layers in Falcon, 384-well tissue culture-treated black-walled clear-bottomed plates and the plates were incubated overnight at 37° C. in a cell culture incubator.
After incubating overnight the cell plates were washed and a buffer containing Rb+ ions were added to the cell plates. The plates were then incubated for another 3-4 hours in a CO2-incubator (37° C.). Following this incubation period plates were washed, compounds were added and subsequently a buffer containing elevated K+ concentrations were added in order to activate the Kv1.5 channel. Following a short incubation time, aliquots of the supernatants were transferred to supernatant plates for subsequent determination of the Rb+ content using Atomic Absorption Spectrometry (ICR8000 instrument, Aurora Biomed Inc.).
One may read the IC50 as the concentration at which inhibition is half-maximal. Read a high IC50 as lower potency. In the case of `CC(CN1C(=O)c2ccccc2C1C(=O)NCc1ccc(N(C)C)cc1)c1ccc(Cl)cc1` (stereo not shown) [2-[2-(4-chlorophenyl)propyl]-N-[4-(dimethylamino)benzyl]-3-oxoisoindoline-1-carboxamide], the IC50 worked out at 1800 nM.
The result for `CC(CN1C(=O)c2ccccc2C1C(=O)NCc1ccc2c(c1)OC(F)(F)O2)c1ccc(Cl)cc1` (stereo not shown) [2-[2-(4-chlorophenyl)propyl]-N-[(2,2-difluoro-1,3-benzodioxol-5-yl)methyl]-3-oxoisoindoline-1-carboxamide] reads 580 nM; that for `CN(C)c1ccc(CNC(=O)C2c3ccccc3C(=O)N2Cc2cc(C(F)(F)F)cc(C(F)(F)F)c2)cc1` (stereo not shown) [2-[3,5-bis(trifluoromethyl)benzyl]-N-[4-(dimethylamino)benzyl]-3-oxoisoindoline-1-carboxamide], 1800 nM.
Under `O=C(NCc1ccc(F)cc1)C1c2ccccc2C(=O)N1C(c1ccncc1)c1ccc(Cl)cc1` (stereo not shown) [2-[(4-chlorophenyl)(pyridin-4-yl)methyl]-N-(4-fluorobenzyl)-3-oxoisoindoline-1-carboxamide] stands 2100 nM.
The result for `CNC(=O)C1c2cc(Br)ccc2C(=O)N1Cc1ccccc1C1CCCC1` (stereo not shown) [6-bromo-2-(2-cyclopentylbenzyl)-N-methyl-3-oxoisoindoline-1-carboxamide] reads 2700 nM.
Compound `O=C(NCCCC(F)F)C1c2cc(Cl)ccc2C(=O)N1Cc1ccccc1C1CCCC1` (stereo not shown) [6-chloro-2-(2-cyclopentylbenzyl)-N-(4,4-difluorobutyl)-3-oxoisoindoline-1-carboxamide] came in with an IC50 of 1300 nM.
The result for `CC(CN1C(=O)c2ccc(Cl)cc2C1C(=O)NCCCC(F)(F)F)c1ccc(Cl)cc1` (stereo not shown) [6-chloro-2-[2-(4-chlorophenyl)propyl]-3-oxo-N-(4,4,4-trifluorobutyl)isoindoline-1-carboxamide] reads 460 nM; that for `CC(CN1C(=O)c2ccc(Cl)cc2C1C(=O)NCc1cccnc1)c1ccc(Cl)cc1` (stereo not shown) [6-chloro-2-[2-(4-chlorophenyl)propyl]-3-oxo-N-(pyridin-3-ylmethyl)isoindoline-1-carboxamide], 680 nM.
The result for `CC(CN1C(=O)c2ccc(Cl)cc2C1C(=O)NCc1ccc(C(F)(F)F)nc1)c1ccc(Cl)cc1` (stereo not shown) [6-chloro-2-[2-(4-chlorophenyl)propyl]-3-oxo-N-{[6-(trifluoromethyl)pyridin-3-yl]methyl}isoindoline-1-carboxamide] reads 420 nM; that for `CC(CN1C(=O)c2ccc(Cl)cc2C1C(=O)NCc1ccc(S(C)(=O)=O)cc1)c1ccc(Cl)cc1` (stereo not shown) [6-chloro-2-[2-(4-chlorophenyl)propyl]-N-[4-(methylsulfonyl)benzyl]-3-oxoisoindoline-1-carboxamide], 2800 nM; that for `C[C@H](c1ccccc1)N1C(=O)c2ccc(Cl)cc2C1C(=O)NCCCC(F)(F)F` (stereo partly drawn) [6-chloro-3-oxo-2-[(1R)-1-phenylethyl]-N-(4,4,4-trifluorobutyl)isoindoline-1-carboxamide], 2000 nM.
Under `O=C(NCCCC(F)(F)F)C1c2cc(Cl)ccc2C(=O)N1Cc1ccccc1C(F)(F)F` (stereo not shown) [6-chloro-3-oxo-N-(4,4,4-trifluorobutyl)-2-[2-(trifluoromethyl)benzyl]isoindoline-1-carboxamide] stands 2500 nM; under `CC(C)(CO)CN1C(=O)c2ccc(Cl)cc2C1C(=O)NCc1cccc(Cl)c1` (stereo not shown) [6-chloro-N-(3-chlorobenzyl)-2-(3-hydroxy-2,2-dimethylpropyl)-3-oxoisoindoline-1-carboxamide], 2100 nM.
Take `CC(C)(CO)CN1C(=O)c2ccc(Cl)cc2C1C(=O)NCc1cccc(OC(F)F)c1` (stereo not shown) [6-chloro-N-[3-(difluoromethoxy)benzyl]-2-(3-hydroxy-2,2-dimethylpropyl)-3-oxoisoindoline-1-carboxamide]: the midpoint of inhibition, the IC50, lay at 410 nM.
Under `CC(C)(CO)CN1C(=O)c2ccc(F)cc2C1C(=O)NCc1cccc(C(F)(F)F)c1` (stereo not shown) [6-fluoro-2-(3-hydroxy-2,2-dimethylpropyl)-3-oxo-N-[3-(trifluoromethyl)benzyl]isoindoline-1-carboxamide] stands 1700 nM.
In the case of `O=C(NCc1ccccc1)C1c2cc(Br)ccc2C(=O)N1Cc1ccccc1` (stereo not shown) [N,2-dibenzyl-6-bromo-3-oxoisoindoline-1-carboxamide], half-maximal inhibition (IC50) required 840 nM.
Consider `CC(CN1C(=O)c2ccccc2C1C(=O)NCc1ccc2c(c1)OCO2)c1ccc(Cl)cc1` (stereo not shown) [N-(1,3-benzodioxol-5-ylmethyl)-2-[2-(4-chlorophenyl)propyl]-3-oxoisoindoline-1-carboxamide], for which the IC50 was determined as 620 nM.
The result for `CC(CN1C(=O)c2ccccc2C1C(=O)NCc1ccccc1Cl)c1ccc(Cl)cc1` (stereo not shown) [N-(2-chlorobenzyl)-2-[2-(4-chlorophenyl)propyl]-3-oxoisoindoline-1-carboxamide] reads 750 nM; that for `CC(C)(C)CN1C(=O)c2ccccc2C1C(=O)NCc1ccc(Cl)c(Cl)c1` (stereo not shown) [N-(3,4-dichlorobenzyl)-2-(2,2-dimethylpropyl)-3-oxoisoindoline-1-carboxamide], 2500 nM.
Under `CC(C)(C)CN1C(=O)c2ccccc2C1C(=O)NCc1cccc(Cl)c1` (stereo not shown) [N-(3-chlorobenzyl)-2-(2,2-dimethylpropyl)-3-oxoisoindoline-1-carboxamide] stands 2900 nM.
Under `CC(C)(CO)CN1C(=O)c2ccc(F)cc2C1C(=O)NCc1cccc(Cl)c1` (stereo not shown) [N-(3-chlorobenzyl)-6-fluoro-2-(3-hydroxy-2,2-dimethylpropyl)-3-oxoisoindoline-1-carboxamide] stands 340 nM; under `O=C(NCCCC(F)F)C1c2ccccc2C(=O)N1C(c1ccccc1)c1ccccc1` (stereo not shown) [N-(4,4-difluorobutyl)-2-(diphenylmethyl)-3-oxoisoindoline-1-carboxamide], 8000 nM.
Regarding `Cc1c(OCF)ccc2c1C(=O)N(CC(C)c1ccc(Cl)cc1)C2C(=O)NC(C)(C)C` (stereo not shown) [N-(tert-butyl)-2-[2-(4-chlorophenyl)propyl]-5-(fluoromethoxy)-4-methyl-3-oxoisoindoline-1-carboxamide], it took 3000 nM to reach half-maximal inhibition (IC50).
The result for `Cn1nc(CN2C(=O)c3ccccc3C2C(=O)NC(C)(C)C)cc1-c1ccccc1` (stereo not shown) [N-(tert-butyl)-2-[(1-methyl-5-phenyl-1H-pyrazol-3-yl)methyl]-3-oxoisoindoline-1-carboxamide] reads 2500 nM; that for `Cc1c(O)ccc2c1C(=O)N(Cc1ccccc1-c1ccc(Cl)c(Cl)c1)C2C(=O)NC(C)(C)C` (stereo not shown) [N-(tert-butyl)-2-[(3′,4′-dichlorobiphenyl-2-yl)methyl]-5-hydroxy-4-methyl-3-oxoisoindoline-1-carboxamide], 720 nM.
Under `CC(C)(C)NC(=O)C1c2ccccc2C(=O)N1Cc1ccccc1-c1ccc(F)c(F)c1` (stereo not shown) [N-(tert-butyl)-2-[(3′,4′-difluorobiphenyl-2-yl)methyl]-3-oxoisoindoline-1-carboxamide] stands 2200 nM; under `Cc1c(O)ccc2c1C(=O)N(Cc1ccccc1-c1ccc(F)c(F)c1)C2C(=O)NC(C)(C)C` (stereo not shown) [N-(tert-butyl)-2-[(3′,4′-difluorobiphenyl-2-yl)methyl]-5-hydroxy-4-methyl-3-oxoisoindoline-1-carboxamide], 2000 nM; under `CC(C)(C)NC(=O)C1c2ccccc2C(=O)N1Cc1cc(F)ccc1-c1ccc(F)cc1` (stereo not shown) [N-(tert-butyl)-2-[(4,4′-difluorobiphenyl-2-yl)methyl]-3-oxoisoindoline-1-carboxamide], 5600 nM.
Compound `CC(C)(C)NC(=O)C1c2ccccc2C(=O)N1Cc1cc(F)ccc1-c1ccccc1` (stereo not shown) [N-(tert-butyl)-2-[(4-fluorobiphenyl-2-yl)methyl]-3-oxoisoindoline-1-carboxamide] had an IC50 of 5200 nM.
Under `CC(C)(C)NC(=O)C1c2ccccc2C(=O)N1Cc1ccc(F)cc1-c1ccc(F)cc1` (stereo not shown) [N-(tert-butyl)-2-[(4′,5-difluorobiphenyl-2-yl)methyl]-3-oxoisoindoline-1-carboxamide] stands 9300 nM.
The result for `CC(C)(C)NC(=O)C1c2ccccc2C(=O)N1Cc1ccccc1-c1ccc(F)cc1` (stereo not shown) [N-(tert-butyl)-2-[(4′-fluorobiphenyl-2-yl)methyl]-3-oxoisoindoline-1-carboxamide] reads 7300 nM; that for `CC(C)(C)NC(=O)C1c2ccccc2C(=O)N1Cc1ccc(F)cc1-c1ccccc1` (stereo not shown) [N-(tert-butyl)-2-[(5-fluorobiphenyl-2-yl)methyl]-3-oxoisoindoline-1-carboxamide], 13000 nM; that for `CC(C)(C)NC(=O)C1c2ccccc2C(=O)N1Cc1ccccc1C(F)(F)F` (stereo not shown) [N-(tert-butyl)-3-oxo-2-[2-(trifluoromethyl)benzyl]isoindoline-1-carboxamide], 1900 nM.
The result for `CC(CN1C(=O)c2cc(Cl)c(Cl)cc2C1C(=O)NC(C)(C)C)c1ccc(Cl)cc1` (stereo not shown) [N-(tert-butyl)-5,6-dichloro-2-[2-(4-chlorophenyl)propyl]-3-oxoisoindoline-1-carboxamide] reads 1800 nM; that for `Cc1c(O)ccc2c1C(=O)N(Cc1ccccc1Oc1ccc(C(F)(F)F)cc1)C2C(=O)NC(C)(C)C` (stereo not shown) [N-(tert-butyl)-5-hydroxy-4-methyl-3-oxo-2-{2-[4-(trifluoromethyl)phenoxy]benzyl}isoindoline-1-carboxamide], 2000 nM.
Take `CC(C)(C)NC(=O)C1c2cc(Cl)ccc2C(=O)N1C(c1ccccc1)c1ccccc1` (stereo not shown) [N-(tert-butyl)-6-chloro-2-(diphenylmethyl)-3-oxoisoindoline-1-carboxamide]: the IC50 is 2800 nM.
Under `CC(CN1C(=O)c2ccc(Cl)cc2C1C(=O)NC(C)(C)C)c1ccc(Cl)cc1` (stereo not shown) [N-(tert-butyl)-6-chloro-2-[2-(4-chlorophenyl)propyl]-3-oxoisoindoline-1-carboxamide] stands 910 nM.
